Measured values reported in publication PMC6764161 (ACS Central Science, 2019).

Key:
rat sEH = assay: IC50 determination for sEH inhibitors; format: biochemical; details: potency ratio on rat sEH, Table S1
[1] = target: T1, soluble epoxide hydrolase (sEH) (Rattus norvegicus, UniProt P80299); assay: In vivo displacement assay in rat; details: TCU 0.1 mg/kg, second compound 3 mg/kg, oral gavage
T1 sequence (P80299 1-554): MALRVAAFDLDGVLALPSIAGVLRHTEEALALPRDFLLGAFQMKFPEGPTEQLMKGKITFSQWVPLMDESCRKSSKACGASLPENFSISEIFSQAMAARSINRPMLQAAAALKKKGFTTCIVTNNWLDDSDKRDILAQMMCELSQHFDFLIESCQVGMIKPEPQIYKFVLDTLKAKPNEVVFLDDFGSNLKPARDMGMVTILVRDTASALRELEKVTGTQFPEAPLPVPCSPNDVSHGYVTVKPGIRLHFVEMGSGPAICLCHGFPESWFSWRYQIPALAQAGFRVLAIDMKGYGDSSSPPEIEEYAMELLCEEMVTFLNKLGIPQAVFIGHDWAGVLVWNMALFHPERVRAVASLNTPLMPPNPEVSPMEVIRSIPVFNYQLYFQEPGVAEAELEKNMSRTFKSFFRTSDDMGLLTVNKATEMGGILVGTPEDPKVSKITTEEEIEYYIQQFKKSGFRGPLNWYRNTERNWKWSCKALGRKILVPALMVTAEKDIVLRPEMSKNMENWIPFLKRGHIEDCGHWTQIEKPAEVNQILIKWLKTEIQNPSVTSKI

[2] = patients, cited from earlier work

Row | displacement of sEH-bound TCU by second compound at 168 h [1] | Structure (SMILES) | fold less potent than TIPU (rat sEH) | time until which effect is maintained ([2]; beyond 24 h) | time within which majority is cleared from dosing [2]
1 | could not be displaced | CC[C@H](C)C(=O)N1CCC(NC(=O)Nc2c(F)cccc2F)CC1 [DFPU, (S)-1-(2,6-difluorophenyl)-3-(1-(2-methylbutanoyl)piperidin-4-yl)urea] | ~16 666 fold | – | –
2 | – | COC(=O)[C@H](c1ccccc1Cl)N1CCc2sccc2C1 [clopidogrel] | – | 7 days | ≤ 6 h
